Series [1] deals with coagulopathic activity of Daboia russelii venom (citrated bovine plasma). As to the kind of experiment: plasma clotting assay. Type of series: biochemical. Also on record: key to maximum clotting velocity: max of first derivative of A595 clot curve (max clotting velocity). The settings on record: for maximum clotting velocity: Daboia russelii venom 100 ng, independent repeats. How it is done: (§1) We used a previously developed plasma clotting assay[35] to measure venom-induced coagulation. Briefly, 100 ng of each venom was incubated at 37 °C for 30 min in the presence or absence of inhibitors (150 µM to 150 nM final concentrations). The final reaction consisted of 10 µl venom ± inhibitors in PBS, 20 µl 20 mM CaCl2, and 20 µl citrated bovine plasma (VWR). The samples were pipetted in triplicate into 384-well plates, and absorbance monitored at 595 nm for 2 h at 25 °C on an Omega FLUOstar instrument. We calculated the maximum clotting velocity of each of the curves as per clot waveform analysis, by calculating the maximum of the first derivative. The means of at least three independent experimental runs for each condition were plotted at each inhibitor concentration with SEMs.

Series [2] has as its system procoagulant activity of Echis carinatus venom (citrated bovine plasma). As to the kind of experiment: plasma clotting assay. Type of series: biochemical. Also on record: key: max of first derivative of A595 clot curve (max clotting velocity). The settings on record: Echis carinatus venom 100 ng, independent repeats. The method, then: as §1
For series [3], the system named is procoagulant activity of viper venoms (citrated bovine plasma). Put plainly: plasma clotting assay, viper venoms overall. Type of series: biochemical. The settings on record: range across all venoms; lower end of dimercaprol and marimastat ranges given as < 0.15; read-out: IC50, inhibition of procoagulant venom activity. The method, then:
as §1

A further series can be described thus: water solubility. The series is classed as physicochemical.
The test system of series [4] is SVMP bioactivity of the four active venoms (E. ocellatus, E. carinatus, B. asper, B. arietans). As to the kind of experiment: in vitro kinetic fluorogenic SVMP assay, viper venoms overall. Type of series: biochemical. How it is done:
(§2) The SVMP assay measuring metalloproteinase activity and the plasma assay measuring coagulation in the presence or absence of venoms and inhibitors were performed as previously described. The SVMP assay kinetically measured cleavage of a quenched fluorogenic substrate (ES010, R&D Biosystems) by venom in the presence or absence of inhibitors.
(§3) Briefly, 10 µl of the substrate (supplied as a 6.2 mM stock) was used per 5 ml reaction buffer (150 mM NaCl, 50 mM Tris-Cl pH 7.5). Reactions consisted of 10 µl of venom ± inhibitors in PBS and 90 µl of substrate. Venoms were used at 1 µg/reaction and final inhibitor concentrations ranged from 150 µM to 150 nM. Samples were preincubated for 30 min at 37 °C and pipetted in triplicate into 384-well plates (Greiner). Thereafter, data was collected on an Omega FLUOstar (BMG Labtech) instrument at an excitation wavelength of 320 nm and emission wavelength of 405 nm at 25 °C for 1 h. The areas under the curve (AUCs) in the 0–40 min interval were calculated for each sample using MARS data analysis software v3.31 (BMG Labtech); this time point was chosen as the time where all fluorescence curves had reached a plateau (maximum fluorescence). For comparing venom-only samples, the means of at least three independent experimental runs for each condition, expressed as AUCs (n ≥ 3), were plotted at each inhibitor concentration with standard error of the mean (SEM). To determine inhibitor efficacy, the AUCs for each of the samples that consisted of venom + inhibitors were transformed and expressed as percentages of the venom-only sample (where the venom was 100%). The negative control (PBS-only) was also expressed relative to the venom, and the variation in background was presented as an interval delineated by the lowest and highest values in the PBS-only samples across concentrations and inhibitors for a specific venom.

In series [5] the test system is procoagulant activity of Bothrops asper venom (citrated bovine plasma). Put plainly: plasma clotting assay. Type of series: biochemical. The conditions noted are these: Bothrops asper venom 100 ng, independent repeats. The method, then:
as §1

Series [6] has as its system procoagulant activity of Echis ocellatus venom (citrated bovine plasma). Put plainly: plasma clotting assay. Type of series: biochemical. The settings on record: Echis ocellatus venom 100 ng, independent repeats. The method, then: as §1
In series [7] the test system is Bitis arietans venom SVMP activity. As to the kind of experiment: fluorogenic SVMP assay. The settings on record: independent repeats. Type of series: biochemical. The method, then:
as §2, §3

Series [8] has as its system Echis carinatus venom SVMP activity. Put plainly: fluorogenic SVMP assay. Type of series: biochemical. The settings on record: independent repeats. The method, then: as §2, §3
Series [9] has as its system Echis ocellatus venom SVMP activity. As to the kind of experiment: fluorogenic SVMP assay. Type of series: biochemical. The settings on record: independent repeats. How it is done: as §2, §3
The subject of series [10] is Bothrops asper venom SVMP activity. As to the kind of experiment: fluorogenic SVMP assay. Type of series: biochemical. The settings on record: independent repeats. How it is done: as §2, §3
For series [11] the following is noted: cited from earlier work.
The subject of the next series is E. ocellatus venom. Put plainly: in vivo preincubation model of envenoming (i.v.). Also on record: species or system CD-1 mice. The method, then:
All animal experiments were conducted using protocols approved by the Animal Welfare and Ethical Review Boards of the Liverpool School of Tropical Medicine and the University of Liverpool, and performed in specific pathogen-free conditions under licensed approval (PPL #4003718 and #P5846F90) of the UK Home Office and in accordance with the Animal [Scientific Procedures] Act 1986 and institutional guidance on animal care. All experimental animals (18–20 g [4–5 weeks old], male, CD-1 mice, Charles River, UK) were housed in groups of five with environmental enrichment, water and food ad libitum and their health monitored daily during acclimatization. The experimental design was based upon 3R-refined WHO-recommended protocols[28],[41], with animals randomized and observers being blinded to the experimental condition. The median lethal doses (venom LD50) used for E. ocellatus (Nigeria), E. carinatus (India), B. asper (Costa Rica), D. russelii (Sri Lanka) and B. arietans (Nigeria) venoms were previously determined[25],[41],[44],[45].
All experimental doses were prepared to a volume of 200 µl in PBS and incubated at 37 °C for 30 min prior to their intravenous injection via the tail vein. Animals were monitored for 6 h, and euthanized via rising concentrations of CO2 upon observation of previously defined humane end points that are predicators of lethality (e.g., seizure, pulmonary distress, paralysis, hemorrhage)[28]. Deaths, time of death, and survivors were recorded; where death/time of death actually represents the implementation of euthanasia based on defined humane end points.
For all experimental animals described above, blood samples were collected via cardiac puncture immediately post-euthanasia. Plasma was separated by centrifugation at 400 × g for 10 min and stored at −80 °C. We assessed the levels of thrombin-antithrombin complexes (TAT) and soluble thrombomodulin using mouse ELISA Kits (ab137994 and ab209880, Abcam), following the manufacturer’s protocol. All available plasma samples (some were unobtainable via cardiac puncture due to extensive internal hemorrhage) were assessed if the time of death within the group varied, whereas three samples were randomly chosen if the time of death was the same (e.g., either very rapid death within 2 min, or survival until the end of the experiment [360 min or 24 h]). The resulting data was plotted as the median of duplicate measurements for each animal and is presented with standard deviations (SDs).

Series [12] deals with pro- and anticoagulant fractions of D. russelii venom. As to the kind of experiment: nanofractionation with plasma coagulation assay. The series is classed as biochemical, Daboia russelii. The settings on record: nanofractionated D. russelii venom; inhibitor 0.0064 to 20 µM. How it is done: Fifty microlitres of venom solution (D. russelii; 1 mg/ml) was injected into a Shimadzu LC-2010 system with nanofractionation in parallel. Separation was performed on a Waters XBridge reversed-phase C18 column (250 × 4.6 mm^2 column with 3.5 μm pore-size) at 30 °C. The total flow rate of the mobile phase solution was 0.5 ml/min with eluent A (98% H2O, 2% acetonitrile [ACN], 0.1% formic acid [FA]) and eluent B (98% ACN, 2% H2O, 0.1% FA). Liquid chromatography gradients consisted of a linear increase of mobile phase B from 0 to 50% in 20 min, followed by a linear increase to 90% B in 4 min, then isocratic at 90% B for 5 min, after which the percentage of mobile phase B was decreased from 90 to 0% in 1 min, followed by 10 min at 0% B to re-equilibrate. The effluent was split in a 1:9 ratio of which the 10% fraction was sent to a Shimadzu SPD-M20A prominence diode array detector and the 90% fraction was directed to a nanofractionation collector which dispensed the fractions into transparent 384-well plates (F-bottom, rounded square well, polystyrene, without lid, clear, non-sterile; Greiner Bio One, Alphen aan den Rijn, The Netherlands) at a resolution of 6 s/well. The collector used was either a commercially available FractioMate^TM nanofractionator (SPARK-Holland & VU, Netherlands, Emmen & Amsterdam) controlled by FractioMator software v1.0 (Spark-Holland, The Netherlands, Emmen) or a modified Gilson 235P autosampler controlled by in-house written software Ariadne v1.8 (VU Amsterdam). The well plates with venom fractions were then dried overnight in a Christ Rotational Vacuum Concentrator (RVC 2 − 33 CD plus, Zalm en Kipp, Breukelen, The Netherlands) equipped with a cooling trap, and maintained at −80 °C during operation. The freeze-dried plates were then stored at −80 °C prior to bioassaying.
The final assay concentrations of the inhibitors tested in the assay were 20, 4, 0.8, 0.16, 0.032, and 0.0064 µM. The plates were then incubated for 30 min at room temperature, and during this time bovine plasma (Sterile Filtered, Biowest, Nuaille, France) was defrosted in a water bath and centrifuged for 4 min at 805 × g prior to use. […] The plate was then read immediately for absorbance kinetically for 100 min at 595 nm at 25 °C using a Varioskan Flash Multimode Reader (Thermo Fisher Scientific, Ermelo, The Netherlands). The obtained results were normalized by dividing the slope measured in each well by the median of all slope values across the plate, and the processed coagulation chromatograms were plotted to visualize very fast coagulation, medium increased coagulation and anticoagulation, as previously described.

As usually defined, the half-life is the time in which the quantity being followed falls by half.

Each structure is given as a SMILES string. Where “and” joins values, the source holds several entries; their conditions need not be identical. Equal entries are not always repeated. Where two headings read alike, the source gives them in different places.

`CNC(=O)[C@H](Cc1ccccc1)NC(=O)[C@H](CC(C)C)[C@H](CSc1cccs1)C(=O)NO` [batimastat]: the “effect on clotting after complete neutralization of SVMP activity” value in series [1] (D. russelii venom, high doses) was “revealed clear venom anticoagulant effects”. Also, the maximum clotting velocity in series [1] (inhibitor 15 µM) is 0.01373 and 0.01942 and 0.02131; in series [2] (inhibitor 15 µM), 0.03565 and 0.03449; in [2] (inhibitor 150 µM) it was 0.0287 and 0.02696 and 0.02803. Further, the IC50 in series [3] was below 150 nM. In addition, the results for the “water solubility (words)” value in the series “water solubility” and in “water solubility” (listed as Batimastat) were “water insolubility” and “low water solubility”, respectively. Also, the “neutralization of SVMP bioactivity” value in series [4] (four active venoms, marimastat 150 nM to 150 µM, batimastat […] and 150 nM) is on record as “equivalent efficacy to marimastat”.
For the compound `OCC(S)CS` (stereo not drawn) [dimercaprol, 2,3-dimercapto-1-propanol], the maximum clotting velocity in series [5] (inhibitor 15 µM) is 0.02441 and 0.02559 and 0.02164; in [5] (inhibitor 150 µM) it was 0.02412 and 0.03441 and 0.03148; in [6] (inhibitor 15 µM) it was 0.031 and 0.039 and 0.025; in series [6] (inhibitor 150 µM), 0.038 and 0.0465 and 0.041; in [1] (inhibitor 15 µM), 0.02868 and 0.02941 and 0.02393; in series [1] (inhibitor 150 µM), 0.007941 and 0.0123. The maximum clotting velocity in series [2] (inhibitor 15 µM) was 0.039 and 0.037 and 0.04491; in series [2] (inhibitor 150 µM), 0.03967 and 0.03833 and 0.05167. In addition, the “SVMP activity, percentage of the venom-only sample” value in series [7] (inhibitor 15 µM) was 16.3406% and 15.4164% and 15.5101%; in series [7] (inhibitor 150 µM), 15.3818% and 14.876% and 14.901%; in series [8] (inhibitor 15 µM), 11.4563% and 14.5818% and 10.6976%; in series [8] (inhibitor 150 µM), 11.223% and 13.9151% and 10.3819%; in series [9] (inhibitor 15 µM) it was 17.6103% and 18.1155% and 16.6523%; in [9] (inhibitor 150 µM), 15.563% and 16.8718% and 16.6432%. For the same compound, the “SVMP activity, percentage of the venom-only sample” value is 36.4776% and 36.4971% and 29.4073% in series [10] (inhibitor 15 µM); 26.9201% and 36.0411% and 27.8434% in [10] (inhibitor 150 µM). In addition, the IC50 fell in the range of 150 to 3700 nM in [3] and 20 to 400 nM in series [4] (range across the active venoms, read-out: IC50s, inhibition of venom SVMP activity). Further, in series [4] (across the active venoms), the “lowest concentration generally effective / required to fully inhibit SVMP activities” value was 1.5 µM.
For `CCc1c(C(=O)C(N)=O)c2c(OCC(=O)O)cccc2n1Cc1ccccc1` [varespladib], the “tolerability” value in series [11] (Phase 1 and 2) was “well tolerated”. Further, the “risk of major adverse cardiovascular events” value in series [11] (Phase 2B, same daily dose, >300 patients for >6 months) is recorded as “no greater risk of major adverse cardiovascular events”. Further, the “risk of myocardial infarction vs placebo” value in series [11] (Phase 3, acute coronary syndrome patients, 500 mg oral daily) is “greater risk of myocardial infarction than those receiving placebo”. In addition, the “oral bioavailability” value in [11] was “good oral bioavailability”. Also, the half-life in [11] (delivered by iv infusion) is 5 h. The maximum clotting velocity is 0.09594 and 0.09681 and 0.08696 in series [1] (inhibitor 15 µM); 0.1113 and 0.1116 and 0.1203 in series [1] (inhibitor 150 µM). Besides, the “protection against venom-induced lethality” value in the series on E. ocellatus venom (45 µg E. ocellatus venom preincubated with 60 µg of each drug, i.v., 6 h) was “failed to prevent lethality over the full experimental time course”. The “thrombin-antithrombin (TAT) levels, range in group” value with E. ocellatus venom (plasma after euthanasia, E. ocellatus venom + 60 µg of each drug, venom-only mean 1127.3, normal mice 10.2–15.9) is 472.7 to 649.9 ng/mL. Also, the “inhibition of anticoagulant venom fractions” value in series [12] was “effectively inhibited”. For the same compound, the “inhibition of procoagulant venom fractions” value in series [12] was “some inhibitory effect against procoagulant venom toxins, but only at very high doses (20 µM)”. For the same compound, the “water solubility (words)” value in “water solubility” is “water insolubility”.

(Values after PMC7738508, “A therapeutic combination of two small molecule toxin inhibitors provides broad preclinical efficacy against viper snakebite” (Nature Communications, 2020).)
